Test results: US10105378B2, “Enrichment methods for preparing tannic acid compositions” (SyneuRx International (Taiwan) Corp., priority 2016, dated 2018)

Columns and labels:
[1] = target: D-amino acid oxidase (DAAO) (UniProt P14920)
Procedure: The activity of DAAO was determined in vitro by measuring the inhibition of the catabolism of known substrate, D-proline. The cofactor FAD (40 ? M) was added to the DAAO stock solution first. For the assay, potential inhibitors of tannic acid(s) were mixed with reaction mixture containing phosphate buffered saline (137 mM NaCl, 3 mM KCl, 10 mM Na2HPO4, 2 mM NaH2PO4, pH 7.4), horseradish peroxidase (5 U/ml), o-phenylendiamine (OPD, 0.03%), and 0.6 μg human-(or porcine-) DAAO, and incubated for about 5 min. After the pre-incubation period, 40 mM D-proline were added as substrate and the reaction continued for 10 min. OPD was oxidized to form 2,3-diaminophenazine (DAP) by horseradish peroxidase. The absorbance of DAP was measured at 453 nm by a spectrophotometry. Assay was done in serial dilutions of the inhibitors to generate IC50 and analyzed by Prism (Graphpad Software). In the analysis, the spectrophotometry readings were fit to a standard equation to determine the concentration of 50% inhibition (IC50). All enzymatic assays were conducted at room temperature in 96-well plate format.
The DAAO inhibitory activities of subgroups of tannic acids (having a particular number of galloyl moieties) were determined as follows.

MK-801 treated mice [2] = experiment: Open field locomotion in MK-801 treated mice (Examples 3, 4); format: in vivo, C57BL/6J male mice; settings: MK-801 0.1 mg/kg i.p. alone
Procedure: (§1) Each mouse in Groups 2-6 received an acute administration of MK-801 (Sigma-Aldrich, USA) dissolved in normal saline, 0.1 mg/kg, i.p.) 20 minutes prior to the behavioral tests. Each mouse in Groups 3-6 received an acute administration of tannic acids (Sigma-Aldrich, USA; dissolved in PBS, 10, 15, 20 or 30 mg/kg, i.p.) 20 minutes prior to the MK-801 administration.
All mice in this study were tested with open field task and prepulse inhibition task with at least 1-week interval between two tasks. An additional cohort of mice was used to test the effect of different sources of tannic acid on prepulse inhibition.
(§2) Each mouse in Groups 2-5 received an acute administration of MK-801 (Sigma-Aldrich, USA) dissolved in normal saline, 0.1 mg/kg for open field and Barnes maze tasks, and 0.2 mg/kg for prepulse inhibition and sucrose preference tasks by i.p. injection) 20 minutes prior to the behavioral tests. Each mouse in Groups 3-6 received an acute oral administration of tannic acids (Merck Millipore, Germany; dissolved in PBS, 10, 30, or 100 mg/kg, p.o.) 20 minutes prior to the MK-801 administration.
In this test, tannic acids were administered orally 20 minutes before the MK-801 (0.1 mg/kg) injection.

MK-801 treated mice [3] = experiment: Prepulse inhibition in MK-801 treated mice (Examples 3, 4); format: in vivo, C57BL/6J male mice; settings: MK-801 0.2 mg/kg i.p. alone
Procedure: as §1
Prepulse inhibition was used as an index of sensorimotor gating function using SR-LAB startle apparatus (San Diego Instruments, San Diego, Calif., USA). Under 72 dB background noise, each session was composed of 5 minutes accumulation period followed by 64 trials in four blocks. The pulse alone (PA) trial was a 40 ms, 120 dB white noise burst. In the prepulse (pp)+pulse trials, a 20 ms white noise prepulse stimuli of 78 dB (pp6), 82 dB (pp10), and 90 dB (pp18) were presented 100 ms before a 40 ms 120 dB pulse. The non-stimulus (NS) trials presented the background noise only. The initial and the last blocks were composed of six PA trials, respectively. Two middle blocks consisted of PA, pp+pulse, and NS trials. […] The percentage of prepulse inhibition was evaluated by the following formula: % PPI=100×[(PA score)−(pp−P score)]/(PA score), where the PA score was the average of the PA value in the middle blocks. […]

MK-801 treated mice [4] = experiment: Sucrose preference (anhedonia) in MK-801 treated mice; format: in vivo, C57BL/6J male mice; settings: MK-801 0.2 mg/kg i.p. alone
Procedure: as §2
Sucrose preference test has been commonly examined in mouse models of several mental illnesses, including, but not limited to, depression, major depression disorder, anhedonia, negative symptoms of schizophrenia, chronic mild and unpredictable stress (see Anderson et al., 2006; Carvalho et al., 2013; Briones et al., 2011; Der-Avakian and Markou, 2012; Tye et al., 2013; Edwards and Koob, 2012; Brigman et al., 2010; Koo and Duman, 2007; Nestler and Hyman, 2010; Overstreet, 2012; Papp et al., 1991; Santiago et al., 2010; Skalisz et al., 2002; Szczypka et al., 2001; Taylor et al., 2010; Vardigan et al., 2010; Willner et al., 1987; You et al., 2011).

MK-801 treated mice [5] = experiment: Prepulse inhibition in MK-801 treated mice (Example 9); format: in vivo, C57BL/6J male mice; settings: MK-801 0.3 mg/kg i.p. alone
Procedure: Each mouse in Groups 2-4 received an acute administration of 0.3 mg/kg MK-801 (Sigma-Aldrich, USA) dissolved in normal saline by i.p. injection 20 minutes prior to the prepulse inhibitin test. Each mouse in Groups 3-4 received an acute oral administration of 50 or 200 mg/kg Enrichment #10 tannic acids dissolved in ddH2O by p.o. 20 minutes prior to the MK-801 administration.
Prepulse inhibition was used as an index of sensorimotor gating function using SR-LAB startle apparatus (San Diego Instruments, San Diego, Calif., USA). Under 65 dB background noise, each session was composed of 5 minutes accumulation period followed by 64 trials in four blocks. The pulse alone (PA) trial was a 40 ms, 120 dB white noise burst. In the prepulse (pp)+pulse trials, a 20 ms white noise prepulse stimuli of 71 dB (pp6), 75 dB (pp10), and 83 dB (pp18) were presented 100 ms before a 40 ms 120 dB pulse. The non-stimulus (NS) trials presented the background noise only. The initial and the last blocks were composed of six PA trials, respectively. Two middle blocks consisted of PA, pp+pulse, and NS trials. […] The percentage of prepulse inhibition was evaluated by the following formula: % PPI=100×[(PA score)−(pp−P score)]/(PA score), where the PA score was the average of the PA value in the middle blocks

MK-801 treated mice [6] = experiment: Open field locomotion in MK-801 treated mice (Example 9); format: in vivo, C57BL/6J male mice; settings: MK-801 0.2 mg/kg i.p. alone
Procedure: Each mouse in Groups 2-5 received an acute administration of 0.2 mg/kg MK-801 (Sigma-Aldrich, USA) dissolved in normal saline by i.p. injection 20 minutes prior to the locomotion activity test. Each mouse in Groups 3-6 received an acute oral administration of 50 mg/kg tannic acids dissolved in ddH2O by p.o. 20 minutes prior to the MK-801 administration. Tannic acid purchased from Merch Millipore (Merck TA) and from Wufeng Chicheng Biotech (CCBiotech TA), and tannic acid from Enrichment method 10 (Enrichment #10) at 50 mg/kg were used in this study.
The open field task is a common measurement of novelty induced exploratory behavior and general activity in both mice and rats. In this study, the mice were placed in a PLEXIGLAS® cage (37.5 cm×21.5 cm×18 cm) under 50-65 lux light intensity. Their spontaneous locomotor activities were measured for 30 minutes using the SMART video tracking system (Panlab, Harvard Apparatus). The travel distance of each mouse was measured as an index of locomotion activity.

Structure (SMILES)	IC50 ([1]; read-out: IC50 (μM), potency of individual tannic acids, Table 4) [µM]	Relative DAAO activity (%) ([1]; samples at 300 nM)	locomotion activity vs control group (MK-801 treated mice [2]; Example 3)	locomotion (MK-801 treated mice [2]; Example 4)	prepulse inhibition vs control group (MK-801 treated mice [3])	preference toward the sucrose solution (2%) (MK-801 treated mice [4])	prepulse inhibition vs control group (MK-801 treated mice [5])	locomotion activity vs control group (MK-801 treated mice [6])
O=C(OC[C@H]1OC(OC(=O)c2cc(O)c(O)c(OC(=O)c3cc(O)c(O)c(O)c3)c2)[C@H](OC(=O)c2cc(O)c(O)c(OC(=O)c3cc(O)c(O)c(O)c3)c2)[C@@H](OC(=O)c2cc(O)c(O)c(OC(=O)c3cc(O)c(O)c(O)c3)c2)[C@@H]1OC(=O)c1cc(O)c(O)c(OC(=O)c2cc(O)c(O)c(O)c2)c1)c1cc(O)c(O)c(OC(=O)c2cc(O)c(O)c(O)c2)c1 (some centres unmarked) [10G]	0.215	19.25	–	–	–	–	–	–
C[C@]12N[C@H](Cc3ccccc31)c1ccccc12 [MK-801]	–	–	hyper-locomotion activity	induced hyper-locomotion	induced robust prepulse inhibition deficits	did not show the preference toward the sucrose solution	induced robust prepulse inhibition deficits in all prepulse intensities	hyper-locomotion activity
